Data set [1] has as its system Mouse Liver Microsomes. The experiment in a line: In vitro formation of methemoglobinemic metabolites with mouse liver microsomes and human erythrocytes. It is filed as cell-based. Background: Liver microsomes are vesicles of endoplasmic reticulum, rich in cytochrome P450 enzymes.
Data set [2] relates to individual human liver microsomes (HLM). As to the method:
In one aspect of the present invention, an in vitro assay is developed for evaluation of biotransformation reactions leading to generation of methemoglobinemic metabolites of 8-aminoquinolines. This method uses simultaneous incubation of a test compound with the hepatic microsomes or Baculosomes® (microsomes prepared from insect cells infected with recombinant baculovirus containing a cDNA insert for a specific human P450 isozyme and NADPH-P450 reductase) and human erythrocytes followed by determination of methemoglobin formation. This allows the unstable metabolites generated in situ to react with the human erythrocytes.
For Correlation analysis six different lots of individual human liver microsomes (HLM) were obtained from BD biosciences (www.gentest.com ) with good variations in CYP3A4 activity (Testosterone 6β-hydroxylase activity ranging from 700-12,000 pmol/mg protein). […] Donor information, genotypes, immunoquantitation was provided along with the characterization table, with different cytochrome P450 assays conducted with NADPH regenerating system, MgCl2 and 0.1M potassium phosphate buffer.

Data set [3] deals with T1, CYP 2A6 (Homo sapiens, UniProt P11509).
T1 construct: purchased; host or cells: insect cells infected with recombinant baculovirus
T1 sequence (P11509 1-494): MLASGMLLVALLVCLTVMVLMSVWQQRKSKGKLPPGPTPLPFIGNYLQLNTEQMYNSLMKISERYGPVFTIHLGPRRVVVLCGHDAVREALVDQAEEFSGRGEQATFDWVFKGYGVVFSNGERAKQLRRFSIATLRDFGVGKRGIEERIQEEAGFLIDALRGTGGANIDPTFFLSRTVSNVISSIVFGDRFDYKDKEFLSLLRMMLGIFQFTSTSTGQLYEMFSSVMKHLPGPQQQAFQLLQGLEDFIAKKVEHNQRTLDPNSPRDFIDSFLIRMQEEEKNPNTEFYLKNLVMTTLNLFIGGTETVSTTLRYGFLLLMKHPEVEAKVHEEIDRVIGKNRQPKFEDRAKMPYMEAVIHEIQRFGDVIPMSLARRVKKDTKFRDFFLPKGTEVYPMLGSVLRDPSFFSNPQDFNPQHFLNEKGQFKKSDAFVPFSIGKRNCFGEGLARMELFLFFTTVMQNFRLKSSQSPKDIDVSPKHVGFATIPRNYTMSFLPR
In words: Methemoglobinemic metabolite formation with Baculosomes, CYP 2A6. To be noted: mean ± S.D. of four. It is filed as cell-based.

The target of data set [4] is T2, CYP 1A2 (Homo sapiens, UniProt P05177).
T2 construct: purchased; host or cells: insect cells infected with recombinant baculovirus
T2 sequence (P05177 2-516 limits assumed): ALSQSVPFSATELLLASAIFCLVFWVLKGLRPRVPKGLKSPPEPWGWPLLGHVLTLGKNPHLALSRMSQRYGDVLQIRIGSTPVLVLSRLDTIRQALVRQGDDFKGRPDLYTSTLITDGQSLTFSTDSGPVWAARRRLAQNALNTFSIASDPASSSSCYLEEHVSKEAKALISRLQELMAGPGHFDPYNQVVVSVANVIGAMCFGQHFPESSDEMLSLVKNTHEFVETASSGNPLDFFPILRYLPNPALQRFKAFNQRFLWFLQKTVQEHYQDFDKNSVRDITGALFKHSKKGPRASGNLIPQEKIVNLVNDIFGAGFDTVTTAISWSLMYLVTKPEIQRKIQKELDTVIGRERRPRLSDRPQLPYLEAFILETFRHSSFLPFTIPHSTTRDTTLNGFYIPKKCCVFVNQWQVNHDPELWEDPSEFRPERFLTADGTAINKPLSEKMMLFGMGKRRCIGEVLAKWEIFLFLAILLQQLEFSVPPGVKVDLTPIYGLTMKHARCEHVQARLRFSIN
The experiment in a line: Methemoglobinemic metabolite formation with Baculosomes, CYP 1A2. It is filed as cell-based. To be noted: mean ± S.D. of four.

Some results are limits rather than exact numbers.

For `COc1cc(N[C@H](C)CCCN)c2nccc(C)c2c1Oc1ccc(Cl)c(Cl)c1` [NPC1161B], the “formation of methemoglobenemic metabolites, Azithromycin” value in data set [1] (Mouse Liver Microsomes, 8-aminoquinoline with Azithromycin) came out at 9.993 ± 1.306. The “formation of methemoglobenemic metabolites, Erythromycin” value in data set [1] (Mouse Liver Microsomes, 8-aminoquinoline with Erythromycin) came to 3.133 ± 0.963. Also, the “formation of methemoglobenemic metabolites, Microsomes” value in data set [1] (Mouse Liver Microsomes, no macrolide) is 11.24 ± 3.612. Further, the “% methemoglobin formation, Mouse Liver Microsomes” value in data set [1] (drug 100 μM, microsomes equivalent to 25 pmoles cytochrome P450, Mean ± S.D. of four) came out at 11.240 ± 3.612%. For the same molecule, in data set [2], the “R value, linear correlation between % methemoglobin formation and CYP3A4 Content of HLM preparation” value was > 0.9; the “correlation of methemoglobin toxicity with CYP 2D6 or CYP2E1 contents of HLM preparations” value is on record as “did not correlate”. In addition, the “% methemoglobin formed, CYP 2A6” value in data set [3] is 2.135 ± 0.530%. Besides, the “% methemoglobin formed, CYP 1A2” value in data set [4] is 0.00%.

The values above are taken from patent US20070190188A1, “Controlling Toxicity of Aminoquinoline Compounds” (The University of Mississippi, priority 2005, published 2007).
